Results reported in US10603357B2, “Therapeutic TREM-1 peptides” (Universite de Lorraine, priority 2004, dated 2020).

How the values were obtained:
BALB/c mice [1] = assay: LPS-induced endotoxaemia, survival of mice (Example 1); type: in vivo, mouse; conditions: for animals alive 7 days after LPS injection: 200 μl of 300 μM peptide i.p. 1 hour before 200 μg LPS i.p., 10 mice per group (FIG. 2, 3); for protection (survival) from LPS: 4 hours after LPS (FIG. 4)
Description: BALB/c mice (10 per group) were injected intraperitoneally with 200 μg LPS. The TREM-1 peptides P1, P2, P3, or P5 (200 μl of a 300 μM solution per mouse) were injected intraperitoneally 1 hour before LPS. Viability of mice was monitored twice a day for 7 days. Statistical analysis was performed by Logrank test. Data from control mice represent cumulative survival curves from two independent experiments performed under identical conditions.
BALB/c mice (10 per group) were injected intraperitoneally with 200 μg LPS. TREM-1 peptide P1, 200 μl of a 300 μM solution per mouse was injected intraperitoneally 1 hour before or 4 hours after LPS. Viability of mice was monitored twice a day for 7 days. Statistical analysis was performed with the Logrank test. Data from control mice represent cumulative survival curves from two independent experiments performed under identical conditions
BALB/c mice (10 per group) were injected intraperitoneally with 200 μg LPS. P1 peptide, 200 μl of a 150, 300 and 600 μM solution per mouse (dots) or P3, 200 μl of a 600 μM solution per mouse (filled squares) were injected intraperitoneally 4 hours after LPS. Viability of mice was monitored twice a day for 7 days. Statistical analysis was performed with the Logrank test
In the experiments of this example, the peptides were administered in a volume of 200 μl of the solution molarity indicated. To assess the ability of TREM1-peptides to protect mice from LPS-induced endotoxaemia, the Inventors administered peptides P1, P2, P3 and P5 (300 μM) 1 hour before a lethal dose of lipopolysaccharide (LPS) (FIG. 2). Lethality was monitored over time and compared with animals that had received control injections of vehicle alone. P5 injection confers maximal protection, with 90% of the animals still alive 7 days after LPS injection, as compared with 10% of control mice (p<0.001). 60% of the P1-treated mice and 50% of the P2 treated mice survived endotoxaemia as compared with 10% of control mice (p<0.01 and p<0.05 respectively).
In order to investigate whether TREM-1 peptide treatment could be delayed until after the administration of LPS, the Inventors injected the peptides at 4 hours after LPS injection. […] 80% of the mice injected with P1 4 hours after LPS survived endotoxaemia compared to 60% of mice treated 1 h before LPS and 10% of mice treated with vehicle alone (p<0.001 and p<0.01 respectively). Thus, P1 is effective even when injected after the outbreak of endotoxaemia. […] P1 administration conferred maximal protection (80%) when administered at 600 μM (p<0.01) and the level of protection dropped to 50% at 300 μM (p<0.05) and further down to 30% at 150 μM as compared to 20% of control mice, indicating a dose dependent effect of P1 (FIG. 4). The Inventors then investigated whether P1 protects against septic shock in the “CLP” model (Cecal Ligation and Puncture is a widely used experimental model of sepsis). Mice treated with two doses of P1 at 5 and 24 hours after CLP were protected from death as compared to control treated mice (p=0.0791) although the difference was not statistically significant. 40% of the mice injected with P1 at 5 days after CLP survived compared to 5% of mice treated with P3 peptide.

BALB/c mice [2] = assay: CLP polymicrobial sepsis model in mice (Example 3); type: in vivo, mouse; conditions: for Serum IL-1β / Serum TNF-α / Serum sTREM-1: 24 hours after CLP
Description: Male Balb/C mice (20 to 23 g) were randomly grouped and treated with normal saline (n=14) or the control peptide (n=14, 100 μg) or with P5 (100 μg) in a single infection at HO (n=18), H+4 (n=18) or H+24 (n=18). The last group of mice (n=18) was treated with repeated injections of P5 (100 μg) at H+4, H+8 and H+24.
Mice (n=15 per group) were treated with a single injection of normal saline or 10 μg, 20 μg, 50 μg, 100 μg or 200 μg of P5 at HO after the CLP and monitored for survival.
Mice (5 per group) were killed under anaesthesia at 24 hours after CLP. Bacterial counts in peritoneal lavage fluid and blood were determined and results are expressed as CFU per mL of blood and CFU per mouse for the peritoneal lavage.
Male Balb/C mice (7 to 9 weeks, 20 to 23 g) were anaesthetized by i.p. administration of ketamine and xylazine in 0.2 mL sterile pyrogen-free saline. The caecum was exposed through a 1.0 cm abdominal midline incision and subjected to a ligation of the distal half followed by two punctures with a G21 needle. A small amount of stool was expelled from the punctures to ensure patency. The caecum was replaced into the peritoneal cavity and the abdominal incision closed in two layers. After surgery all mice were injected s.c. with 0.5 ml of physiologic saline solution for fluid resuscitation and s.c. every 12 h with 1.25 mg (i.e. 50 μg/g) of imipenem. The animals were randomly grouped and treated with normal saline (n=14), the control peptide (n=14, 100 μg) or P5 (100 μg) in a single injection at HO (n=18), H+4 (n=18) or H+24 (n=18). The last group of mice (n=18) was treated with repeated injections of P5 (100 μg) at H+4, H+8 and H+24. All treatments were diluted into 500 μl of normal saline and administered i.p. The Inventors next sought to determine the effect of various doses of P5. For this purpose, mice (n=15 per group) were treated with a single injection of normal saline or 10 μg, 20 μg, 50 μg 100 μg or 200 μg of P5 at HO after the CLP and monitored for survival. Five additional animals per group were killed under anaesthesia 24 hours after CLP for the determination of bacterial count and cytokines levels. Peritoneal lavage fluid was obtained using 2 mL RPMI 1640 (Life Technologies) and blood was collected by cardiac puncture. Concentrations of TNF-α and IL-1β in the serum were determined by ELISA (BD Biosciences). For the assessment of bacterial counts, blood and peritoneal lavage fluid were plated in serial log dilutions on tryptic soy supplemented with 5% sheep blood agar plates. After plating, tryptic soy agar plates were incubated at 37° C. aerobically for 24 hours, and anaerobically for 48 hours. Results are expressed as CFU per mL of blood and CFU per mouse for the peritoneal lavage.

In the case of LQVTDSGLYRCVIYHPP [P5], the “animals alive 7 days after LPS injection” value (BALB/c mice [1]) is reported as 90%, the “effect on survival of repeated injections” value (BALB/c mice [2]; 100 μg at H+4, H+8 and H+24 after CLP) is reported as “more favourable effect on survival” and the “Serum IL-1β” value (BALB/c mice [2]; 10 μg at H0) is reported as 356 ± 62 pg/mL. For the same sequence, the “Serum TNF-α” value (BALB/c mice [2]; 10 μg at H0) was 110 ± 11 pg/mL, the “Serum sTREM-1” value (BALB/c mice [2]; 10 μg at H0) was 43 ± 8 ng/mL and the “Serum IL-1β” value (BALB/c mice [2]; 20 μg at H0) was 324 ± 58 pg/mL. The “Serum TNF-α” value (BALB/c mice [2]; 20 μg at H0) was 89 ± 10 pg/mL, the “Serum sTREM-1” value (BALB/c mice [2]; 20 μg at H0) was 58 ± 8 ng/mL and the “Serum IL-1β” value (BALB/c mice [2]; 50 μg at H0) was 57 ± 11 pg/mL. The “Serum TNF-α” value (BALB/c mice [2]; 50 μg at H0) was 24 ± 6 pg/mL, the “Serum sTREM-1” value (BALB/c mice [2]; 50 μg at H0) was 93 ± 10 ng/mL and the “Serum IL-1β” value (BALB/c mice [2]; 100 μg at H0) was 31 ± 3 pg/mL. For the same sequence, the “Serum TNF-α” value (BALB/c mice [2]; 100 μg at H0) was 20 ± 3 pg/mL, the “Serum sTREM-1” value (BALB/c mice [2]; 100 μg at H0) was 118 ± 12 ng/mL and the “Serum IL-1β” value (BALB/c mice [2]; 200 μg at H0) was 37 ± 8 pg/mL. The “Serum TNF-α” value (BALB/c mice [2]; 200 μg at H0) was 21 ± 7 pg/mL and the “Serum sTREM-1” value (BALB/c mice [2]; 200 μg at H0) was 158 ± 13 ng/mL.
“LVVTQRPFTRPSEVHMGKFTLKH (listed as Mus musculus) [P1]” was tested, and the “protection (survival) from LPS” value (BALB/c mice [1]; 200 μl of 150 μM) was 30%, the “animals alive 7 days after LPS injection” value (BALB/c mice [1]) was 60% and the “protection (survival) from LPS” value (BALB/c mice [1]; 200 μl of 300 μM) was 50%. The “protection (survival) from LPS” value (BALB/c mice [1]; 200 μl of 600 μM) was 80%, the “late death over one week” value (BALB/c mice [1]; delayed treatment after LPS) was “No late death occurred” and the mice surviving endotoxaemia (BALB/c mice [1]; peptide 300 μM injected 4 hours after LPS (FIG. 3)) was 80%.
